Measured values taken from ChEMBL document CHEMBL3044663, “Synthesis and antimicrobial activities of novel bisacridine-1,8-dione derivatives” (2011).
The source made the active and inactive calls. The rule behind the calls is not given here.

Assays:
Assay type in all cases: functional
[1] = system: Shigella sonnei; assay: Antibacterial activity against Shigella sonnei RSKK 877 after 24 hr by disk diffusion method; as to DIZ: test concentration or dose not given here; as to diameter of the inhibition zone (DIZ): test concentration or dose not given here
[2] = system: Escherichia coli; assay: Antibacterial activity against Escherichia coli ATCC 35218 after 24 hr by disk diffusion method; as to DIZ: test concentration or dose not given here
[3] = system: Staphylococcus aureus; assay: Antibacterial activity against Staphylococcus aureus ATCC 25923 after 24 hr by disk diffusion method; also: test concentration or dose not given here
[4] = system: Candida albicans; assay: Antifungal activity against Candida albicans 16231 after 24 hr by disk diffusion method; as to DIZ: test concentration or dose not given here
[5] = system: Bacillus subtilis; assay: Antibacterial activity against Bacillus subtilis RSKK 240 after 24 hr by disk diffusion method; also: test concentration or dose not given here
[6] = system: Bacillus cereus; assay: Antibacterial activity against Bacillus cereus RSKK 863 after 24 hr by disk diffusion method; also: test concentration or dose not given here
[7] = system: Saccharomyces cerevisiae; assay: Antifungal activity against Saccharomyces cerevisiae TP (3-2) after 24 hr by disk diffusion method; also: test concentration or dose not given here
[8] = system: Pseudomonas aeruginosa; assay: Antibacterial activity against Pseudomonas aeruginosa ATCC 27853 after 24 hr by disk diffusion method; as to DIZ: test concentration or dose not given here
[9] = system: Staphylococcus epidermidis; assay: Antibacterial activity against Staphylococcus epidermidis Mu 30 after 24 hr by disk diffusion method; also: test concentration or dose not given here
[10] = system: Salmonella; assay: Antibacterial activity against Salmonella 21.3 after 24 hr by disk diffusion method; as to DIZ: test concentration or dose not given here

Compound | diameter of the inhibition zone (DIZ) [1] | diameter of the inhibition zone (DIZ) [2] | diameter of the inhibition zone (DIZ) [3] | diameter of the inhibition zone (DIZ) [4] | diameter of the inhibition zone (DIZ) [5] | diameter of the inhibition zone (DIZ) [6] | diameter of the inhibition zone (DIZ) [7] | diameter of the inhibition zone (DIZ) [8] | diameter of the inhibition zone (DIZ) [9] | diameter of the inhibition zone (DIZ) [10] | inhibition zone (IZ) [1] [mm] | inhibition zone (IZ) [2] [mm] | inhibition zone (IZ) [8] [mm] | inhibition zone (IZ) [10] [mm]
O=C1CCCC2=C1C(c1cccc(C3C4=C(CCCC4=O)N(c4cccc(C(=O)O)c4)C4=C3C(=O)CCC4)c1)C1=C(CCCC1=O)N2c1cccc(C(=O)O)c1 | inactive | 12 mm | inactive | 14 mm | 9 mm | 8 mm | 11 mm | 9 mm | inactive | 11 mm |  |  |  | 
O=C1CCCC2=C1C(c1cccc(C3C4=C(CCCC4=O)N(c4ccc(C(=O)O)cc4)C4=C3C(=O)CCC4)c1)C1=C(CCCC1=O)N2c1ccc(C(=O)O)cc1 | 9 mm | 9 mm | 11 mm | 10 mm | 8 mm | inactive | inactive | 10 mm | 12 mm | 8 mm |  |  |  | 
N#Cc1cccc(N2C3=C(C(=O)CCC3)C(c3cccc(C4C5=C(CCCC5=O)N(c5cccc(C#N)c5)C5=C4C(=O)CCC5)c3)C3=C2CCCC3=O)c1 | 12 mm | 8 mm | 9 mm | 27 mm | inactive | inactive | 17 mm | 10 mm | inactive | 10 mm |  |  |  | 
CC(=O)N1CCN(c2ccc(OCC3COC(Cn4ccnc4)(c4ccc(Cl)cc4Cl)O3)cc2)CC1 (configuration not stated) [KETOCONAZOLE] |  |  |  | 21 mm |  |  | 24 mm |  |  |  |  |  |  | 
CC1(C)CC(=O)C2=C(C1)N(c1ccc(C(=O)O)cc1)C1=C(C(=O)CC(C)(C)C1)C2c1cccc(C2C3=C(CC(C)(C)CC3=O)N(c3ccc(C(=O)O)cc3)C3=C2C(=O)CC(C)(C)C3)c1 | 11 mm | 10 mm | inactive | 12 mm | 11 mm | 9 mm | 13 mm | inactive | 11 mm | 9 mm |  |  |  | 
N#Cc1ccccc1N1C2=C(C(=O)CCC2)C(c2cccc(C3C4=C(CCCC4=O)N(c4ccccc4C#N)C4=C3C(=O)CCC4)c2)C2=C1CCCC2=O | 10 mm | 8 mm | 10 mm | 13 mm | inactive | inactive | 20 mm | 14 mm | 10 mm | 11 mm |  |  |  | 
CC1(C)CC(=O)C2=C(C1)N(c1ccccc1C#N)C1=C(C(=O)CC(C)(C)C1)C2c1cccc(C2C3=C(CC(C)(C)CC3=O)N(c3ccccc3C#N)C3=C2C(=O)CC(C)(C)C3)c1 | 10 mm | 12 mm | 12 mm | 14 mm | inactive | inactive | 14 mm | 9 mm | 9 mm | 9 mm |  |  |  | 
COc1cccc(N2C3=C(C(=O)CC(C)(C)C3)C(c3cccc(C4C5=C(CC(C)(C)CC5=O)N(c5cccc(OC)c5)C5=C4C(=O)CC(C)(C)C5)c3)C3=C2CC(C)(C)CC3=O)c1 | 12 mm | 10 mm | inactive | inactive | inactive | 13 mm | inactive | 7 mm | inactive | inactive |  |  |  | 
CC1(C)S[C@@H]2[C@H](NC(=O)[C@H](N)c3ccccc3)C(=O)N2[C@H]1C(=O)O [AMPICILLIN] | 22 mm | 27 mm | 24 mm |  | 24 mm | 20 mm |  |  |  | 23 mm |  |  |  | 
CC1(C)CC(=O)C2=C(C1)N(c1ccc(Br)cc1)C1=C(C(=O)CC(C)(C)C1)C2c1ccc(C2C3=C(CC(C)(C)CC3=O)N(c3ccc(Br)cc3)C3=C2C(=O)CC(C)(C)C3)cc1 | 12 mm | 10 mm | 12 mm | 11 mm | inactive | inactive | 16 mm | 10 mm | 10 mm | 10 mm |  |  |  | 
Cc1cccc(N2C3=C(C(=O)CCC3)C(c3cccc(C4C5=C(CCCC5=O)N(c5cccc(C)n5)C5=C4C(=O)CCC5)c3)C3=C2CCCC3=O)n1 | 9 mm | 12 mm | 18 mm | 14 mm | inactive | inactive | 17 mm | 9 mm | 8 mm | 9 mm |  |  |  | 
COc1ccccc1N1C2=C(C(=O)CCC2)C(c2cccc(C3C4=C(CCCC4=O)N(c4ccccc4OC)C4=C3C(=O)CCC4)c2)C2=C1CCCC2=O | inactive | inactive | inactive | inactive | inactive | inactive | inactive | inactive | inactive | inactive |  |  |  | 
COc1cccc(N2C3=C(C(=O)CCC3)C(c3cccc(C4C5=C(CCCC5=O)N(c5cccc(OC)c5)C5=C4C(=O)CCC5)c3)C3=C2CCCC3=O)c1 | 10 mm | 14 mm | 16 mm | 12 mm | 11 mm | inactive | 11 mm | 9 mm | 11 mm | 12 mm |  |  |  | 
CC1(C)CC(=O)C2=C(C1)N(c1cccc(C#N)c1)C1=C(C(=O)CC(C)(C)C1)C2c1cccc(C2C3=C(CC(C)(C)CC3=O)N(c3cccc(C#N)c3)C3=C2C(=O)CC(C)(C)C3)c1 | 9 mm | 13 mm | 10 mm | 16 mm | inactive | inactive | 14 mm | 8 mm | 8 mm | 10 mm |  |  |  | 
GENTAMICIN |  |  |  |  |  |  |  |  |  |  | 11 | 15 | 20 | 10
CC1(C)CC(=O)C2=C(C1)N(c1ccc(Cl)cc1)C1=C(C(=O)CC(C)(C)C1)C2c1ccc(C2C3=C(CC(C)(C)CC3=O)N(c3ccc(Cl)cc3)C3=C2C(=O)CC(C)(C)C3)cc1 | 10 mm | 12 mm | 9 mm | 10 mm | inactive | inactive | 14 mm | 9 mm | 7 mm | 12 mm |  |  |  | 
CC1(C)CC(=O)C2=C(C1)N(c1cccc(C(=O)O)c1)C1=C(C(=O)CC(C)(C)C1)C2c1cccc(C2C3=C(CC(C)(C)CC3=O)N(c3cccc(C(=O)O)c3)C3=C2C(=O)CC(C)(C)C3)c1 | 10 mm | 9 mm | 10 mm | 16 mm | 9 mm | 8 mm | 16 mm | 9 mm | inactive | 11 mm |  |  |  | 
COc1ccccc1N1C2=C(C(=O)CC(C)(C)C2)C(c2cccc(C3C4=C(CC(C)(C)CC4=O)N(c4ccccc4OC)C4=C3C(=O)CC(C)(C)C4)c2)C2=C1CC(C)(C)CC2=O | 12 mm | 14 mm | 9 mm | 15 mm | 8 mm | 13 mm | 14 mm | 10 mm | 13 mm | 8 mm |  |  |  | 
